Measured values reported in patent publication US20170369523A1, “TEMPLATE-FIXED BETA-HAIRPIN PEPTIDOMIMETICS THAT ARE LIGANDS FOR G-PROTEIN-COUPLED RECEPTORS (GPCRS) AND ARE MODULATORS OF TRANSCRIPTION FACTORS AND COACTIVATORS” (POLYPHOR AG, priority 2008, published 2017).
Where two headings read alike, the source gives them in different places. Bridge positions count the residues as written; N and C are the ends. Square brackets hold non-standard residues; d marks the D form. Peptide text beside a SMILES is read from it. Cha = N[C@@H](CC1CCCCC1)C(=O)O; Orn = NCCC[C@H](N)C(=O)O

T1: human UTR2 receptor (Homo sapiens, UniProt Q9UKP6)
T1 construct: expressed in transfected cells; host or cells: mouse pre-B cell line 300-19
T1 sequence (Q9UKP6 1-389): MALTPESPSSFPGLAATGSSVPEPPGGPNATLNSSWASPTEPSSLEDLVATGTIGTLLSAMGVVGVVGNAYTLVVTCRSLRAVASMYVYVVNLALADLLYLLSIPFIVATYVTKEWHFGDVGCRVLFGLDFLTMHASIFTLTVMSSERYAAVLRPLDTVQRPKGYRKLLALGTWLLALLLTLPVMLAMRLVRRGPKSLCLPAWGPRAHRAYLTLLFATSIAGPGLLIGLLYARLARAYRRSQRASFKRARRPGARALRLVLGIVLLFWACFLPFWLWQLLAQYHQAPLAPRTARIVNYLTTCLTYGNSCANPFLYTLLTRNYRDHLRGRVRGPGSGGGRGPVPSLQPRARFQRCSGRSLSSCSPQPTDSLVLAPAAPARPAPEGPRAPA

T2: human UTR2 receptor (human, UniProt Q9UKP6 1-389)
T2 sequence (looked up): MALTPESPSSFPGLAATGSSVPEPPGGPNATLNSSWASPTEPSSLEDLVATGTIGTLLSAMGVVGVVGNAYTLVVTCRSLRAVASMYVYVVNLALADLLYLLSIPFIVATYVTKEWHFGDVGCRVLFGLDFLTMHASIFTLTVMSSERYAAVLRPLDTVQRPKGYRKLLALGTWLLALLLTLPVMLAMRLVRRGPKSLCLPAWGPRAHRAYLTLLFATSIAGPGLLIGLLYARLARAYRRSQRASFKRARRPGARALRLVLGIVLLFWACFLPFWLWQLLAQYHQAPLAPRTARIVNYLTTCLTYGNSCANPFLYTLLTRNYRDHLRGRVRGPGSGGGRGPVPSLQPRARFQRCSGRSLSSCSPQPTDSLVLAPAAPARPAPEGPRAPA


Assays:
[1] = Plasma stability, mouse plasma; type: in vitro ADME; conditions: 37° C., sampled up to 240 min
Description: (§1) The stability of the peptides in human and mouse plasma was determined by applying the following method: 315 μl/deep well of freshly thawed human plasma (Basler Blutspende-dienst) and mouse plasma (Harlan Sera-Lab, UK), respectively, were spiked with 35 μl/well of compound in PBS (100 μM, triplicate) and incubated at 37° C. At t=0, 15, 30, 60, 120 and 240 min aliquots of 50 μl were transferred to filtration plate wells containing 150 μl/well of acetonitrile. Following shaking for 2 min the occurred suspensions were filtrated by vacuum and finally. 100 μl of each filtrate were transferred to a propylene microtiter plate, and analyzed by LC/MS as follows: Column: Waters, XBridge C18, mobile phases: (A) water+0.1% formic acid and (B) acetonitrile/water, 95/5 (v/v)+0.1% formic acid, gradient: 5%-100% (B) in 2 minutes, electrospray ionization, MRM detection (triple quadrupole). The peak areas were determined and triplicate values were averaged. The stability was expressed in percent of the initial value at t=0. (tx/t0×100). By using the TREND function of EXCEL (Microsoft Office 2003) T1/2 were determined.

in vitro [2] = type: cell-based; conditions: for GI50 at 48 h: human
Description: (§2) The cytotoxicity of the peptides to HELA cells (Acc57) and COS-7 cells (CRL-1651) was determined using the MTT reduction assay. Briefly, the method was as follows: 7000 HELA cells/well and 4500 COS-7 cells/well were seeded and grown in 96-well microtiter plates for 24 h at 37° C. at 5% CO2. Thereafter, time zero (Tz) was determined by MTT reduction (see below). The supernatant of the remaining wells was discarded, and fresh medium and compounds in serial dilutions (12.5, 25 and 50 μM, triplicates) were pipetted into the wells. After incubation of the cells for 48 h at 37° C. at 5% CO2 the supernatant was discarded again and 100 μL MTT reagent (0.5 mg/mL in RPMI1640 and DMEM, respectively)/well was added. Following incubation at 37° C. for 2 h the media were aspirated and the cells were spiked (100 μl isopropanol/well). The absorbance of the solubilized formazan was measured at 595 nm (OD595peptide). For each concentration averages were calculated from triplicates. The percentage of growth was calculated as follows: (OD595peptide-OD595Tz-OD595Empty well)/(OD595Tz-OD595Empty well)×100%. The GI50 (Growth Inhibition) concentrations were calculated for each peptide by using a trend line function for the concentrations (50, 25, 12.5 and 0 μM), the corresponding percentages and the value 50, (=TREND (C50:C0,%50:%0,50).

[3] = system: human red blood cells (hRBC); type: cell-based; conditions: red cells of human, 1 h
Description: The peptides were tested for their hemolytic activity against human red blood cells (hRBC). Fresh hRBC were washed three times with phosphate buffered saline (PBS) and centrifuged for 10 min at 2000×g. Compounds (100 μM) were incubated with 20% hRBC (v/v) for 1 h at 37° C. The final erythrocyte concentration was approximately 0.9×10^9 cells/mL. A value of 0% and 100% cell lyses, respectively, was determined by incubation of hRBC in the presence of PBS alone and 0.1% Triton X-100 in H2O, respectively. The samples were centrifuged, the supernatants were 20-fold diluted in PBS buffer and the optical densities (OD) were measured at 540 nm. The 100% lyses value (OD540H2O) gave an OD540 of approximately 1.3-1.8. Percent hemolysis was calculated as follows: […]

[4] = Plasma stability, human plasma; type: in vitro ADME; conditions: 37° C., sampled up to 240 min
Description: as §1

in vitro [5] = type: cell-based; conditions: for GI50 at 48 h: African green monkey
Description: as §2

human UTR2 receptor [6] = biological target: T1, human UTR2 receptor; assay: Ca2+ assay: UTR2 receptor-agonizing and antagonizing activity (calcium mobilization, Flexstation); type: cell-based
Description: 2.3. Ca^2+− Assay: UTR2 Receptor-Agonizing and Antagonizing Activity of the Peptides
The mouse pre-B cell line 300-19 was stably transfected with the cDNA encoding the human UTR2 receptor (GenBank Acc# NM_018949), and expression was confirmed with a positive calcium signal in response to human urotensin (Sigma Aldrich). Increases in intracellular calcium were monitored using a Flexstation 384 (Molecular Devices, Sunnyvale, Calif.). The cells were batch loaded with the Calcium 4 Assay kit (Molecular Devices) in assay buffer (Hanks Balanced salt solution, HBSS, 20 mM HEPES, pH 7.4, 0.1% BSA) for 1 h at room temperature and labeled cells were dispensed into either black 96 well or 384 well assay plates (Greiner). Calcium mobilization induced by urotensin or test compounds was measured in the Flexstation 384 (excitation, 485 nm; emission, 525 nm) for 70 seconds. Agonist activity was determined by direct addition of ligand or peptides, while antagonists were identified by spiking the cells with test compounds prior to urotensin addition. A dose response curve (compound concentration versus % maximum response for urotensin) was determined for each active agonist and antagonist and was fitted to a four parameter logistic equation using SoftmaxPro 4.8 (Molecular Devices), from which EC50% and IC50% values were calculated.

human UTR2 receptor [7] = biological target: T2, human UTR2 receptor; assay: cell-based or functional assay

| Molecule | Plasmastability mouse pl. T1/2 [1] | GI50 (in vitro [2]) | Hemolysis at 100 μM [%] [3] | Plasmastability human pl. T1/2 [4] | GI50 (in vitro [5]) | EC50 (human UTR2 receptor [6]) | GI50 at 48 h (in vitro [2]) | GI50 at 48 h (in vitro [5]) | EC50% (Ca2+ assay, agonist activity) (human UTR2 receptor [7]) |
| --- | --- | --- | --- | --- | --- | --- | --- | --- | --- |
| CC(C)C[C@@H]1NC(=O)[C@@H]2CSSC[C@H](NC(=O)[C@H](CC(=O)O)NC(=O)[C@@H]3CCCN3C(=O)[C@@H](CO)NC1=O)C(=O)N[C@@H](Cc1ccccc1)C(=O)N[C@@H](Cc1c[nH]c3ccccc13)C(=O)N[C@@H](CCCCN)C(=O)N[C@@H](Cc1ccc(O)cc1)C(=O)N2 [Ex. 28] | 4 h | > 50 µM | 0% | 4 h | > 50 µM | < 0.002 µM | – | – | – |
| CC(C)C[C@@H]1NC(=O)[C@@H]2CSSC[C@H](NC(=O)[C@H](CC(=O)O)NC(=O)[C@@H]3CCCN3C(=O)[C@@H](CCC(=O)O)NC1=O)C(=O)N[C@@H](Cc1ccccc1)C(=O)N[C@@H](Cc1c[nH]c3ccccc13)C(=O)N[C@@H](CCCCN)C(=O)N[C@@H](Cc1ccc(O)cc1)C(=O)N2 [compound 30] | 4 h | > 50 µM | 0% | 4 h | > 50 µM | < 0.002 µM | – | – | – |
| CC(C)[C@@H]1NC(=O)[C@@H]2CSSC[C@H](NC(=O)[C@H](CC(=O)O)NC(=O)[C@@H]3CCCN3C(=O)[C@H]3CCCN3C1=O)C(=O)N[C@@H](Cc1ccccc1)C(=O)N[C@@H](Cc1c[nH]c3ccccc13)C(=O)N[C@@H](CCCCN)C(=O)N[C@@H](Cc1ccc(O)cc1)C(=O)N2 [compound 31] | 4 h | > 50 µM | 0% | 4 h | > 50 µM | < 0.002 µM | – | – | – |
| CC(C)[C@@H]1NC(=O)[C@@H]2CSSC[C@H](NC(=O)[C@H](CC(=O)O)NC(=O)[C@@H]3CCCN3C(=O)[C@H]3CCCN3C1=O)C(=O)N[C@@H](Cc1ccccc1)C(=O)N[C@H](Cc1c[nH]c3ccccc13)C(=O)N[C@@H](CCCN)C(=O)N[C@@H](Cc1ccc(O)cc1)C(=O)N2 [compound 32] (cyclo(DCF[dW][Orn]YCV[dP]P); disulfide 2-7) | 4 h | – | 0% | 4 h | – | – | > 50 µM | > 50 µM | – |
| CC(C)C[C@@H]1NC(=O)[C@@H]2CSSC[C@H](NC(=O)[C@H](CC(=O)O)NC(=O)[C@@H]3CCCN3C(=O)[C@H]3CCCN3C1=O)C(=O)N[C@@H](Cc1ccc(O)cc1)C(=O)N[C@@H](Cc1c[nH]c3ccccc13)C(=O)N[C@@H](CCCCN)C(=O)N[C@@H](Cc1ccc(O)cc1)C(=O)N2 [compound 33] | 4 h | > 50 µM | 0% | 4 h | > 50 µM | < 0.002 µM | – | – | – |
| NCCCC[C@@H]1NC(=O)[C@H](Cc2c[nH]c3ccccc23)NC(=O)[C@H](Cc2ccccc2)NC(=O)[C@@H]2CSSC[C@H](NC(=O)[C@H](Cc3ccc(O)cc3)NC1=O)C(=O)N[C@@H](CC1CCCCC1)C(=O)N1CCC[C@@H]1C(=O)N1CCC[C@H]1C(=O)N[C@@H](CC(=O)O)C(=O)N2 [compound 35] (cyclo(DCFWKYC[Cha][dP]P); disulfide 2-7) | 4 h | – | 0% | 4 h | – | – | > 50 µM | > 50 µM | – |
| cyclo(DCYWKYCL[dP]P) (disulfide 2-7; SMILES CC(C)C[C@@H]1NC(=O)[C@@H]2CSSC[C@H](NC(=O)[C@H](CC(=O)O)NC(=O)[C@@H]3CCCN3C(=O)[C@H]3CCCN3C1=O)C(=O)N[C@@H](Cc1ccc(O)cc1)C(=O)N[C@@H](Cc1c[nH]c3ccccc13)C(=O)N[C@@H](CCCCN)C(=O)N[C@@H](Cc1ccc(O)cc1)C(=O)N2) [Ex. 33] | – | – | – | – | – | – | – | – | < 0.002 µM |
| cyclo(DCFWKYCL[dS]P) (disulfide 2-7; SMILES CC(C)C[C@@H]1NC(=O)[C@@H]2CSSC[C@H](NC(=O)[C@H](CC(=O)O)NC(=O)[C@@H]3CCCN3C(=O)[C@@H](CO)NC1=O)C(=O)N[C@@H](Cc1ccccc1)C(=O)N[C@@H](Cc1c[nH]c3ccccc13)C(=O)N[C@@H](CCCCN)C(=O)N[C@@H](Cc1ccc(O)cc1)C(=O)N2) [Ex. 28] | – | – | – | – | – | – | – | – | < 0.002 µM |
| cyclo(DCF[dW]KYCV[dP]P) (disulfide 2-7) [Ex. 34] | – | – | – | – | – | – | – | – | < 0.002 µM |
| cyclo(DCFWKYCV[dP]P) (disulfide 2-7) [Ex. 31] | – | – | – | – | – | – | – | – | < 0.002 µM |
| cyclo(DCFWKYCL[dE]P) (disulfide 2-7; SMILES CC(C)C[C@@H]1NC(=O)[C@@H]2CSSC[C@H](NC(=O)[C@H](CC(=O)O)NC(=O)[C@@H]3CCCN3C(=O)[C@@H](CCC(=O)O)NC1=O)C(=O)N[C@@H](Cc1ccccc1)C(=O)N[C@@H](Cc1c[nH]c3ccccc13)C(=O)N[C@@H](CCCCN)C(=O)N[C@@H](Cc1ccc(O)cc1)C(=O)N2) [Ex. 30] | – | – | – | – | – | – | – | – | < 0.002 µM |
